Laboratory results reported in patent US20060172992A1, “Therapeutic agent for overactive bladder resulting from cerebral infarction” (EISAI CO., LTD., priority 2004, published 2006).
Entries after “also recorded” stand apart in the source; their conditions may differ.

Experiments:
[1] = system: human with overactive bladder caused by cerebrovascular disease; conditions: cited from earlier work
[2] = system: rat with overactive bladder caused by cerebrovascular disease; conditions: cited from earlier work
[3] = system: overactive bladder model rats (cerebral infarction by left middle cerebral artery embolization); assay: Bladder pressure measurement after intravenous administration, cerebral infarction rats (CI group)
cerebral infarction rats = assay: Bladder pressure measurement after intraventricular administration, cerebral infarction rats; assay type: in vivo, rat
Procedure: After producing cerebral infarction rats, drug infusion tubes were placed in the lateral ventricles of the rats.
The process was conducted in the same manner as Example 5 except that metal tubes were inserted into lateral ventricles upon producing cerebral infarction rats. […] Feasibility of intraventricular administration was determined after injecting ink into the brain, sacrificing the rats and removing the brains to verify on their faces. […] As vehicle, saline was infused for […]. Experiments of five examples for each concentration were conducted.

[4] = 5×10^−4 mg/kg and 5×10^−5 mg/kg

Compound: COc1ccc(C(=O)N2CCCC2=O)cc1 [Aniracetam]
- micturition reflex [1]: suppression of micturition reflex is observed
- micturition reflex [2]: suppression of micturition reflex is observed

Compound: COc1cc2c(cc1OC)C(=O)C(CC1CCN(Cc3ccccc3)CC1)C2.Cl (stereo not drawn) [donepezil hydrochloride, 1-benzyl-4-[(5,6-dimethoxy-1-indanone)-2-yl]methylpiperidine hydrochloride]
- micturition contraction pressure [3, 4]: no change
- retained urine [3, 4]: little retained urine
- micturition contraction pressure ([3]; CI group, 5×10^−1 mg/kg): significantly increased
- bladder capacity, difference from vehicle administration group ([3]; CI group, 5×10^−4 mg/kg and 5×10^−5 mg/kg, hydrochloride): significant difference from the vehicle administration group
- increase in bladder capacity (percentage of change from control) ([3]; CI group, 5×10^−5 mg/kg): 52.8%
- percentage of change in bladder capacity ([3]; CI group, 5×10^−4 to 5×10^−5 mg/kg (bladder capacity most increased)): 52.8%
- bladder capacity ([3]; CI group, 5×10^−7 to 5×10^−1 mg/kg every 30 minutes, hydrochloride, 1 mg/kg): increased the bladder capacities; also recorded: gradually increased
- micturition contraction pressure, versus vehicle administration group ([3]; CI group, 5×10^−7 to 5×10^−2 mg/kg): no significant difference
- bladder capacity, dose comparison (cerebral infarction rats; cerebral infarction group, 5×10^−5 mg/ml): most increased
- increase in bladder capacity (cerebral infarction rats; cerebral infarction rats, 5×10^−5 mg/ml): 95.8%
- bladder capacity, difference from vehicle administration group (cerebral infarction rats; cerebral infarction rats, 5 μl of 5×10^−5 mg/ml and 5×10^−6 mg/ml, hydrochloride): increased with a significant margin
- bladder capacity (cerebral infarction rats; cerebral infarction rats, 5 μl of 5×10^−7 to 5×10^−4 mg/ml, hydrochloride): notably increased
- micturition contraction pressure (cerebral infarction rats; respective doses, versus vehicle, hydrochloride): No change; also recorded: no significant difference
